# Reference: the supplement of paper PMC10307832
# What was measured:
# Test in all cases: relative viability (nuclei count vs DMSO), 5 days (fraction); higher = more cells survive
# [1] = compound: OCc1c[nH]c2ccccc12 [Indole-3-carbinol] + O=C(CCCCCCC(=O)Nc1ccccc1)NO [Vorinostat] (partner 1 µM)
# Outline: (§1)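 After 5 days of treatment, lung cancer cells in 1536-well plates were fixed and stained in a single step (final 0.05% Triton X-100, 1% formaldehyde, 1 ug/ml Hoechst) and their nuclei counted on 4× images. Treatment had been applied by pin tool the day after seeding as one drug alone or as a fixed anchor-drug dose with five library-drug doses (not always all listed) in √10 steps. Relative viability is the nuclei count of treated wells divided by that of vehicle wells, and values are medians of duplicate plates.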
# [2] = compound: OCc1c[nH]c2ccccc12 [Indole-3-carbinol] + CC(C)C[C@H](NC(=O)[C@H](Cc1ccccc1)NC(=O)c1cnccn1)B(O)O [Bortezomib] (partner 0.002 µM)
# Outline: as §1
# [3] = compound: OCc1c[nH]c2ccccc12 [Indole-3-carbinol] + COc1cc2c(Oc3ccc(NC(=O)C4(C(=O)Nc5ccc(F)cc5)CC4)cc3F)ccnc2cc1OCCCN1CCOCC1 [Foretinib] (partner 0.25 µM)
# Outline: as §1
# [4] = compound: OCc1c[nH]c2ccccc12 [Indole-3-carbinol] + CCNC(=O)c1noc(-c2cc(C(C)C)c(O)cc2O)c1-c1ccc(CN2CCOCC2)cc1 [Luminespib] (partner 0.01 µM)
# Outline: as §1
# [5] = compound: OCc1c[nH]c2ccccc12 [Indole-3-carbinol] + Cc1cc(Nc2cc(N3CCN(C)CC3)nc(Sc3ccc(NC(=O)C4CC4)cc3)n2)n[nH]1 [Tozasertib] (partner 0.1 µM)
# Outline: as §1
Cell Line,relative viability ([1]; first compound 0.253 µM),relative viability ([1]; first compound 0.8 µM),relative viability ([1]; first compound 2.53 µM),relative viability ([1]; first compound 8 µM),relative viability ([2]; first compound 0.253 µM),relative viability ([2]; first compound 0.8 µM),relative viability ([2]; first compound 2.53 µM),relative viability ([2]; first compound 8 µM),relative viability ([3]; first compound 0.253 µM),relative viability ([3]; first compound 0.8 µM),relative viability ([3]; first compound 2.53 µM),relative viability ([3]; first compound 8 µM),relative viability ([4]; first compound 0.253 µM),relative viability ([4]; first compound 0.8 µM),relative viability ([4]; first compound 2.53 µM),relative viability ([4]; first compound 8 µM),relative viability ([5]; first compound 0.253 µM),relative viability ([5]; first compound 0.8 µM),relative viability ([5]; first compound 2.53 µM),relative viability ([5]; first compound 8 µM)
NCI-H1666,0.926,1.1,1.08,0.995,0.892,0.873,0.865,0.786,0.932,1,1.01,0.94,0.914,0.925,1.01,1.05,0.556,0.638,0.526,0.657
NCI-H1734,0.799,0.809,0.803,0.774,0.974,1.11,0.966,0.893,0.91,0.802,0.887,0.674,0.242,0.246,0.194,0.221,0.276,0.263,0.259,0.27
NCI-H1755,0.83,0.694,0.738,0.78,1.02,0.939,0.976,0.995,0.982,0.953,0.895,0.895,0.554,0.407,0.49,0.348,0.642,0.592,0.647,0.535
NCI-H1915,0.511,0.512,0.495,0.518,0.968,0.881,0.973,0.977,1.03,1.08,1.06,1.01,0.695,0.794,0.741,0.662,0.409,0.459,0.449,0.464
NCI-H1975,0.663,0.754,0.73,0.712,0.409,0.328,0.436,0.365,0.888,0.977,1.01,0.873,0.343,0.224,0.171,0.21,0.651,1.03,0.797,0.88
NCI-H1993,0.697,1.05,0.958,0.783,1.09,1.38,1.14,1.17,0.716,0.899,0.763,0.846,1.02,0.915,0.889,0.823,0.614,0.629,0.579,0.562
NCI-H2009,0.752,0.733,0.746,0.699,1.14,1.09,0.998,0.933,1.18,1.13,1.21,1.17,1.05,1.08,1.05,0.893,0.691,0.862,0.737,0.739
NCI-H2023,0.727,0.526,0.588,0.572,0.903,1.02,0.887,0.939,0.978,0.971,0.822,0.916,0.526,0.751,0.818,0.707,0.256,0.355,0.366,0.362
NCI-H2085,0.867,0.751,0.753,0.687,1.07,1.15,1.14,0.967,0.781,1.11,0.879,0.865,0.456,0.429,0.395,0.498,0.848,0.914,0.887,0.79
NCI-H2087,0.837,1.09,0.86,0.655,0.815,0.967,0.963,0.678,1.08,1.47,1.18,1.13,0.119,0.194,0.177,0.172,0.214,0.294,0.283,0.296
NCI-H2126,0.734,0.834,0.718,0.752,1.11,1.11,1.1,1.1,1.05,1.23,1.25,1.06,0.887,0.876,0.992,0.851,0.849,0.876,0.793,0.866
NCI-H2228,0.728,0.682,0.788,0.571,1.17,0.876,0.914,0.911,0.945,0.897,0.984,0.935,0.108,0.19,0.229,0.151,0.208,0.303,0.254,0.265
NCI-H2347,0.521,0.638,0.526,0.506,1.2,–,0.926,0.868,0.743,–,1.21,0.931,0.609,0.215,0.425,0.59,0.614,0.54,0.571,0.538
NCI-H2405,1,1.03,0.971,0.978,0.985,0.983,1,0.963,1.07,1.07,1.04,0.997,0.847,0.812,0.859,0.696,0.751,0.806,0.758,0.776
NCI-H3122,1.05,1.05,1.06,0.885,1.01,1.04,1.07,1.04,0.972,0.962,0.999,0.961,0.0769,0.123,0.108,0.0975,0.398,0.383,0.483,0.372
PC-3 [JPC-3],0.827,0.926,0.801,0.875,0.851,0.89,0.863,0.741,1.07,1.05,1.02,0.967,0.644,0.796,0.722,0.658,0.873,0.981,0.879,0.866
